# Data as given in patent US5948814A, “Genistein for the treatment of cystic fibrosis” (priority 1998, dated 1999).
# “And” between values parts separate entries of the source, which are not always exact repeats. Equal values may be shown once. “Also recorded” adds a separate entry of the source.
# What was measured:
# ΔF508-CFTR [1] = target: T1, ΔF508-CFTR (Homo sapiens, UniProt P13569, DEL508-508); assay: Patch clamp, cell-attached patches, macroscopic current, NIH/3T3-ΔF508 cells
# Method: FIGS. 3A and B show recordings of the potentiation of wild-type (wt) and ΔF508-CFTR channel activity by genistein. Channels in cell-attached patches from NIH/3T3-CFTR (FIG. 3A) and NIH/3T3-ΔF508cells (FIG. 3B), were stimulated as indicated with 10 μM forskolin and 50μ genestein.
# Cell culture: NIH/3T3-CFTR, NIH/3T3-ΔF508, and NIH/3T3 mock cells (generous gifts from Dr. Richard Mulligan of Children's Hospital and Medical Center, Harvard Medical School) were grown as described [Bradbury et al., 1992] at 37° C. and 5% CO2 in Dulbecco's modified Eagle's medium-H21 supplemented with 10% new-born calf serum, 4 mM glutamine, 25 mM glucose, 100 μg/ml penicillin, 100 μg/ml streptomycin, and 50 μg/ml gentamicin. Cells were maintained in T75 flasks, passaged at 90-95% confluency, and split one to four. For measurements of I^- efflux and in vivo phosphorylation, cells were seeded onto 35-mm dishes at […]. For patch-clamp experiments, cells were grown on coverglass chips in 35-mm culture dishes. Media were replaced 24 hours after plating and thereafter every 48 hours. In all cases, media were changed on the day before I^- efflux studies, NIH/3T3-ΔF508 cells were transferred to 27° C. three days before use, and 1 day prior to study, media were supplemented with 5 mM butyrate. For patch-clamp studies, where a constant level of functional ΔF508-CFTR was not essential, NIH/3T3-ΔF508 cells were cultured at 27° C. for 2-6 days before use. Calu-3 cells were grown and maintained as described by Hunter [1995].
# Electrophysiology: CFTR channel currents were recorded at room temperature (~22° C.) with a patch-clamp amplifier (EPC-9, Heka Electronic), filtered at 100 Hz with a built-in three-pole Bessel filter, and stored on videotapes. Data were subsequently refiltered at 25 Hz with an eight-pole Bessel filter (Frequency Device, Havervill, Mass.) and captured onto a hard disk at a sampling rate of 50 Hz. […] Patch-clamp electrodes were made from Corning 7052 glass capillaries (Warner Instrument, Hammed, Conn.). The pipette resistance was usually 3-5 M.OMEGA., and the seal resistance was >20 G.OMEGA.. The pipette solution contained (in mM) 140 N-methyl-D-glucamine chloride (NMDG-C1), 2 MgCl2, 5Ca Cl2, and 10 HEPES (pH 7.4 with NMDG). The superfusion solution contained (in mM) 150 […], 2 MgCl2, 1 EGTA, 5 glucose, and 5 HEPES (pH 7.4 with NaOH). […]
# Statistics: Mean currents and variance were estimated with Igor (Wavemetrics, Lake Oswego, Oreg.). […] Po was calculated from patches containing a single channel by dividing the open channel current amplitude with the mean-current amplitude. […] Calculated values are presented as means±SE. […]
# wt-CFTR [2] = target: T2, wt-CFTR (Homo sapiens, UniProt P13569)
# Method: (§1) FIGS. 9A and B are recordings of the effects of genistein on CFTR gating in excised inside-out patches from NIH/3T3-CFTR or NIH/3T3-ΔF508 cells. CFTR channels were activated by 10 μM forskolin +20 nM calyculin A before excision into an inside-out configuration. Presence of calyculin A helps to slow channel dephosphorylation. (A): continuous 14.5 minute recording of a patch containing wt-CFTR. Expanded traces are 22 seconds in length. ATP (500 μM) with or without 20 μM genistein was present as indicated. (B): 2 traces of 44 seconds in length of an excised inside-out patch with CFTR-ΔF508.
# (§2) Electrophysiology: CFTR channel currents were recorded at room temperature (~22° C.) with a patch-clamp amplifier (EPC-9, Heka Electronic), filtered at 100 Hz with a built-in three-pole Bessel filter, and stored on videotapes. Data were subsequently refiltered at 25 Hz with an eight-pole Bessel filter (Frequency Device, Havervill, Mass.) and captured onto a hard disk at a sampling rate of 50 Hz. […] Patch-clamp electrodes were made from Corning 7052 glass capillaries (Warner Instrument, Hammed, Conn.). The pipette resistance was usually 3-5 M.OMEGA., and the seal resistance was >20 G.OMEGA.. The pipette solution contained (in mM) 140 N-methyl-D-glucamine chloride (NMDG-C1), 2 MgCl2, 5Ca Cl2, and 10 HEPES (pH 7.4 with NMDG). The superfusion solution contained (in mM) 150 […], 2 MgCl2, 1 EGTA, 5 glucose, and 5 HEPES (pH 7.4 with NaOH). In excised inside-out patch experiments, the bath solution contained (in mM) 130 MNDG-Cl, 10 EGTA, 10 HEPES, 20 tetraethylammonium chloride, 8 Tris, and 2 MgCl2 (pH 7.4 with NMDG). Pipette potential was held at 50 mV relative to the bath. Downward deflections represent channel opening.
# (§3) Channels were first activated in cell-attached patches with forskolin plus calyculin A, a membrane-permeant phosphatase inhibitor [Suganuma et al., 1991]. Patches were then excised into an inside-out configuration.
# wt-CFTR [3] = assay: Patch clamp, cell-attached patches, Calu-3 cells; assay type: cell-based, human; conditions: 50 μM genistein on forskolin, n=15
# Text: Downward deflections represent channel opening.
# ΔF508-CFTR [4] = target: T1, ΔF508-CFTR; assay: CFTR gating in excised inside-out patches, NIH/3T3-ΔF508 cells
# Method: as §1, §2, §3
# [5] = tested on: cAMP levels or PKA activity; conditions: cited from earlier work
# tyrosine kinases = conditions: cited from earlier work
# wt-CFTR [6] = target: T2, wt-CFTR; remark: listed apart in the source
# Method: as §2
# [7] = tested on: acid secretion and osteopathic bone resorption; conditions: cited from earlier work
# topoisomerases = conditions: cited from earlier work
# protein phosphatase = conditions: cited from earlier work
# [8] = ATP with genistein, stated for both wt- and ΔF508-CFTR
# T2 sequence (P13569 whole entry): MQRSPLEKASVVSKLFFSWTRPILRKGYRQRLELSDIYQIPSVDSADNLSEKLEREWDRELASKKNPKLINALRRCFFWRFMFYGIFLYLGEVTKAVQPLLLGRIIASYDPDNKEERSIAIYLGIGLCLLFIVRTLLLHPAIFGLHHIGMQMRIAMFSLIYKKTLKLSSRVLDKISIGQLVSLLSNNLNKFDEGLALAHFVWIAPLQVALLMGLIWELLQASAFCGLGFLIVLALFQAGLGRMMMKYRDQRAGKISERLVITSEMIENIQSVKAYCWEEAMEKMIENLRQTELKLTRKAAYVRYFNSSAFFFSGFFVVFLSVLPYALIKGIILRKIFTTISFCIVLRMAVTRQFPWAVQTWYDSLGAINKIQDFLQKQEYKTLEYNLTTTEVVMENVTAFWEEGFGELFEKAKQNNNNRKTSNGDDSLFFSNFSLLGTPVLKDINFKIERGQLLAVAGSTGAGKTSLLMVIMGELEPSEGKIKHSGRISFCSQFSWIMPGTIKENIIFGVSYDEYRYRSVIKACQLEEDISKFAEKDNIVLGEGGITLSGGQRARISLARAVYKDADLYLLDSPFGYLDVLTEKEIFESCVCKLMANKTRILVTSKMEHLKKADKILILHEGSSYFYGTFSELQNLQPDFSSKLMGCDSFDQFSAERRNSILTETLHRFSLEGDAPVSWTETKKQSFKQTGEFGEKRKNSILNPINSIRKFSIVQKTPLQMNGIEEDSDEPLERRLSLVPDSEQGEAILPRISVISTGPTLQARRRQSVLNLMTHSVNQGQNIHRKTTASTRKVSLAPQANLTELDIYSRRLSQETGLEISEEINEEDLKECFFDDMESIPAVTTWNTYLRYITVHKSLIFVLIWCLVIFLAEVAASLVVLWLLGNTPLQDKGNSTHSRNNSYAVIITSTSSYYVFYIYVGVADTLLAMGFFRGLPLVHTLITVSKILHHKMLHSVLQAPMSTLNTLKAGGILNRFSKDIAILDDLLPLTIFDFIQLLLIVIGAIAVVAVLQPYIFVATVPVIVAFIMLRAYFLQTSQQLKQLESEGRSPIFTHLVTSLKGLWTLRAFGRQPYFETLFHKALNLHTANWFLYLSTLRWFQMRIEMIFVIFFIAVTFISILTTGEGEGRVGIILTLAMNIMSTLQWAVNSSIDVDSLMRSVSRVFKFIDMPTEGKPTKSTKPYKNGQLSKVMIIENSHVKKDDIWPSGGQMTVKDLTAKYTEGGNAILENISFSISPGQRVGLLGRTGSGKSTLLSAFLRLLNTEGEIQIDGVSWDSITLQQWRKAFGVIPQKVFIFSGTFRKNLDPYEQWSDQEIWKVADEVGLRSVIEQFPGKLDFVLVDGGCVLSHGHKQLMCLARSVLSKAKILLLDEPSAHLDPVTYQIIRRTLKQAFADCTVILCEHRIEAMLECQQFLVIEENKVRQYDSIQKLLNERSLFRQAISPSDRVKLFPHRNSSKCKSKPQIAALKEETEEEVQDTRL
# T1 sequence (P13569 with tags, fused parts or gaps DEL508-508): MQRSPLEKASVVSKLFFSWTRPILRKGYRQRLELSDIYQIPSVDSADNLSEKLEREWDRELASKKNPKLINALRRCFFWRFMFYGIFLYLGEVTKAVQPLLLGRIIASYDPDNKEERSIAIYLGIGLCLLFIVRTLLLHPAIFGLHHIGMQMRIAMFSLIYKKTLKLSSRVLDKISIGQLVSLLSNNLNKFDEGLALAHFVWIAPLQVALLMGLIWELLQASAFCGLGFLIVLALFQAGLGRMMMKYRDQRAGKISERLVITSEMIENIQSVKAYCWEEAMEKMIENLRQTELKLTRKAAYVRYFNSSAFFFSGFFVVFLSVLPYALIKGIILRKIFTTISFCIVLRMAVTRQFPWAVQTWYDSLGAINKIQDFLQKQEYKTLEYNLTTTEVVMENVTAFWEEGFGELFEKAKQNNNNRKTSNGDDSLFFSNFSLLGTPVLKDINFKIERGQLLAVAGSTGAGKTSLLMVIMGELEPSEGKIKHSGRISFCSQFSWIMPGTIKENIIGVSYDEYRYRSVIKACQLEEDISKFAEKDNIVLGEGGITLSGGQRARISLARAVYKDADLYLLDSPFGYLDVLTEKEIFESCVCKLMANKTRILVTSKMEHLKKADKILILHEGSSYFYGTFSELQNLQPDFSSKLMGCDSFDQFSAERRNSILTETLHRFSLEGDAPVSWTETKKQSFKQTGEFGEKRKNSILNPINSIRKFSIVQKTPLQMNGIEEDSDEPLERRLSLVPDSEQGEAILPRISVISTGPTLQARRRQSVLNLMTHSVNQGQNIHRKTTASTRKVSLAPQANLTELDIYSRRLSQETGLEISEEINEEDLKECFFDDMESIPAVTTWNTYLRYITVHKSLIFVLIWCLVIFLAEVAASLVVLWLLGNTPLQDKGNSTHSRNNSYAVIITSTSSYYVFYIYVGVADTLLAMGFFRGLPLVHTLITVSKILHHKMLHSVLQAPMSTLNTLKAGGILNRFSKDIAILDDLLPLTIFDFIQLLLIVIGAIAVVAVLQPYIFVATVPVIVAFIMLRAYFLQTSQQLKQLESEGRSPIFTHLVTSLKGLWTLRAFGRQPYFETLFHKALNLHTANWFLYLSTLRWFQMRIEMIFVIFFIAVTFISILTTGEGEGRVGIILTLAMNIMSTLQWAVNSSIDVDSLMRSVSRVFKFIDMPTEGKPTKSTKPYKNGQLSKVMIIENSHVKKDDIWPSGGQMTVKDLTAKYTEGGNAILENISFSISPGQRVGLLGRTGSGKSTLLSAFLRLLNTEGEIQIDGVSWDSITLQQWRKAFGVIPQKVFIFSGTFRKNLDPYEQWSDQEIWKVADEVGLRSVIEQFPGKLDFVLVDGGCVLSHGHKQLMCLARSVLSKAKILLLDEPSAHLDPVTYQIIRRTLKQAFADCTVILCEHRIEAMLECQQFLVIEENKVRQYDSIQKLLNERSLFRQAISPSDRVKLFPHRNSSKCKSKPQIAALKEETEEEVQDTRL
smiles,measurement,setting,value
"O=c1c(-c2ccc(O)cc2)coc2cc(O)cc(O)c12 [Genistein, 4',5,7-trihydroxyisoflavone]",patches showing channel activity,"ΔF508-CFTR [1]; 10 μM forskolin plus 50 μM genistein, cells grown at 37° C.",Approximately 10%
same,average increase in mean-current amplitude by genistein,"ΔF508-CFTR [1]; 50 μM genistein on 10 μM forskolin, cells cultured at 27° C., 23 patches, 50 µM",18.6±2.2 fold and 19 fold
same,patches responding,"ΔF508-CFTR [1]; forskolin plus genistein, cells grown at 27° C., 44 of 82",54%
same,increase of ATP-induced currents by genistein,"wt-CFTR [2]; 50 μM genistein, n=8",2.2±0.1 fold
same,opening of channels in absence of ATP,"wt-CFTR [2]; 50 μM genistein, no ATP",did not open wt-CFTR channels in the absence of ATP
same,channel open time,wt-CFTR [2]; [8],"2,033±173 milliseconds"
same,increase in Po by genistein,"wt-CFTR [2]; excised patches, ATP",twofold increase in the Po
same,average increase in mean-current amplitude by genistein,wt-CFTR [3],3.1±0.3 fold
same,channel open time,ΔF508-CFTR [4]; [8],"2,033±173 milliseconds"
same,increase of ATP-dependent channel current by genistein,"ΔF508-CFTR [4]; genistein, n=7",2.3±0.5 fold
same,effect on cAMP levels or PKA activity,[5],does not increase cAMP levels or PKA activity; also recorded: does not alter cellular cAMP levels or PKA activity
same,inhibition of tyrosine kinases,tyrosine kinases,inhibits
same,magnitude of potentiation by genistein after patch cramming,wt-CFTR [6]; patch crammed into a different NIH/3T3-CFTR cell,similar
same,increase of mean current by genistein,"wt-CFTR [6]; wt-CFTR crammed into NIH/3T3-ΔF508 cell, 10 μM forskolin, 50 μM genistein, n=3",3.2±0.3 fold
same,inhibition of acid secretion and osteopathic bone resorption,[7],effectively inhibits acid secretion and osteopathic bone resorption
same,inhibition of topoisomerases,topoisomerases,inhibits
same,inhibition of protein phosphatase,protein phosphatase,no protein phosphatase has been shown to be inhibited by genistein
